Experimental findings from patent US12304897B2, “15-PGDH inhibitors” (KYORIN PHARMACEUTICAL CO., LTD., priority 2019, dated 2025) are described below.

recombinant human 15-PGDH, sequence (P15428 whole entry): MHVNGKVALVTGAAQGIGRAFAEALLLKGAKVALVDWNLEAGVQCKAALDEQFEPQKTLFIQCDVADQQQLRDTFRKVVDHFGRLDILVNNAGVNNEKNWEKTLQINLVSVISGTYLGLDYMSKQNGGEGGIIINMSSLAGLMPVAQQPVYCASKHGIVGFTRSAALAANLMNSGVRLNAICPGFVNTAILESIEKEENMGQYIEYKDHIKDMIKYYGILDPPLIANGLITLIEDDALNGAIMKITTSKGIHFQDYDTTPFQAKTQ

The assay deals with recombinant human 15-PGDH (Homo sapiens (Human), UniProt P15428). Put plainly: 15-PGDH enzyme inhibition test. It counts as biochemical. The note with it: 4 nM recombinant human 15-PGDH, 30 μM PGE2, 1 mM NAD+, fluorescence 340/440 nm after 60 min. As for the experimental part:
15-PGDH Enzyme Inhibition Test
Test compounds and 4 nM recombinant human 15-PGDH (R&D systems) in 50 mM Tris-HCl (pH 8.0) containing 0.01% TWEEN 20 (Sigma) and 0.01% bovine gamma globulin (Sigma) were put into 384 Flat Bottom Black plates (Corning, 3820) and allowed to stand for 12 minutes at room temperature. Then, 30 μM PGE2 (Cayman chemical) and 1 mM NAD^+ (Sigma) were added to start reaction. Sixty minutes after the start of reaction, signals were measured at an excitation wavelength of 340 nm and a fluorescence emission wavelength of 440 nm using Synergy 2 (BioTeck). The intensity of the fluorescent signal obtained when an assay buffer was added in place of the test compounds and NAD^+ was defined as 100% and that obtained with the addition of NAD^+ was defined as 0%.
The IC50 is the concentration that inhibits the measured activity by half. For `Cn1nc2n(c1=O)CCN(c1cccc3cc(C(=O)N4CCCCC4)cnc13)C2` [compound 90], the IC50 lay in the range of 3 to 10 nM.
Regarding `O=C(c1ccc2c(-c3ccc4c(=O)[nH]ncc4c3)c(F)ccc2c1)N1CCC(F)(F)CC1` [compound 87], the half-maximal inhibitory concentration (IC50) was less than 3 nM.
The result for `CN1Cc2cc(-c3cccc4nc(C(=O)N5CCCCC5)ccc34)ccc2C1=O` [compound 70] reads no less than 10 nM; that for `COC(=O)CN1Cc2cc(-c3cccc4cc(C(=O)N5CCC(F)(F)CC5)ccc34)ccc2C1=O` [compound 44], less than 3 nM; that for `Cn1c(=O)[nH]c(=O)c2ccc(-c3cccc4cc(C(=O)N5CCC(F)(F)CC5)cnc34)cc21` [compound 159], less than 3 nM.
In the case of `O=C(c1ccc2c(-c3ccc4c(c3)CN(CC3(C(F)(F)F)CC3)C4=O)cccc2c1)N1CCC(F)(F)CC1` [compound 113] it was 3 to 10 nM; in that of `C[C@H]1CCCN(C(=O)c2ccc3c(N4CCc5ncccc5C4)cccc3c2)C1` [compound 2], less than 3 nM.
As for `Cn1c(=O)[nH]c(=O)c2ccc(-c3cccc4cc(C(=O)N5CCC(F)(F)CC5)ccc34)cc21` [compound 33], the IC50 is less than 3 nM.
Consider `O=C(c1ccc2c(-c3ccc4c(=O)[nH]ccc4c3)c(F)ccc2c1)N1CCC(F)(F)CC1` [compound 49], for which the IC50 is less than 3 nM.
In the case of `CC1CCN(C(=O)c2ccc3c(-c4cnc5c(c4)CN(C)C5=O)cccc3c2)CC1` [compound 125] it was less than 3 nM.
Regarding `CCN(CC)C(=O)c1ccc2c(-c3ccc4c(=O)[nH]ncc4c3)cccc2c1` [compound 155], the 50% inhibitory concentration (IC50) was less than 3 nM.
On to `Cc1nc2c(o1)CCN(c1cccc3cc(C(=O)N4CCCCC4)ccc13)C2` [compound 51], for which the half-inhibitory concentration (IC50) was in the range of 3 to 10 nM.
Turning to `CN1Cc2cc(-c3cccc4cc(C(=O)N5CCCC(C)(C)C5)ccc34)ccc2C1=O` [compound 8], the IC50 was less than 3 nM.
Take `Cn1ccc2cc(-c3c(F)ccc4cc(C(=O)N5CCC(F)(F)CC5)ccc34)ncc2c1=O` [compound 157]: the IC50 was 3 to 10 nM.
`CN1Cc2cc(-c3cccc4cc(C(=O)N5CCCC6CC65)ccc34)cnc2C1=O` (centres unmarked) [compound 151]: the half-maximal inhibitory concentration (IC50) was less than 3 nM.
Consider `CC1CCN(C(=O)c2ccc3c(-c4ccc5c(=O)[nH]ncc5c4)cccc3c2)CC1` [compound 84], for which the half-inhibitory concentration (IC50) was less than 3 nM.
As to `COCn1nc2cc(-c3cccc4cc(C(=O)N5CCC(F)(F)CC5)ccc34)ccn2c1=O` [compound 129], the IC50 is less than 3 nM.
Consider `Cn1cnc2cc(-c3cccc4cc(C(=O)N5CCC(F)(F)CC5)ccc34)ccc2c1=O` [compound 38], for which the IC50 is less than 3 nM.
For the compound `CN1Cc2cc(-c3cccc4cc(C(=O)N5CCCC5)ccc34)ccc2C1=O` [compound 43], the IC50 was less than 3 nM.
Regarding `COCn1ncc2cc(-c3cccc4cc(C(=O)N5CCC(F)(F)CC5)ccc34)ccc2c1=O` [compound 45], the IC50 was less than 3 nM.
Turning to `C[C@H]1CCCN(C(=O)c2ccc3c(N4CCn5c(nn(CC(F)F)c5=O)C4)cccc3c2)C1` [compound 104], the IC50 is less than 3 nM.
Take `Cn1ccc2cc(-c3c(F)ccc4cc(C(=O)N5CCC(F)(F)CC5)ccc34)ccc2c1=O` [compound 158]: the concentration for half-maximal inhibition (IC50) was less than 3 nM.
Turning to `CCN(CC)C(=O)c1ccc2c(-c3cnc4c(c3)CN(C)C4=O)cccc2c1` [compound 154], the IC50 is less than 3 nM.
In the case of `Cn1ccc2cc(-c3cccc4cc(C(=O)N5CCC(F)(F)CC5)ccc34)ccc2c1=O` [compound 116], the IC50 is less than 3 nM.
With `O=C(c1ccc2c(-c3ccn4c(=O)ccnc4c3)cccc2c1)N1CCC(F)(F)CC1` [compound 18], the IC50 was less than 3 nM.
In the case of `CN1Cc2cc(-c3cccc4cc(C(=O)N5CC6(CCC6)C5)ccc34)cnc2C1=O` [compound 150] it was less than 3 nM; in that of `O=C(c1cnc2c(-c3cnc4c(=O)[nH]ncc4c3)cccc2c1)N1CCC(F)(F)CC1` [compound 140], less than 3 nM.
With `C[C@H]1CCCN(C(=O)c2ccc3c(-c4cnc5c(=O)[nH]ccc5c4)cccc3c2)C1` [compound 46], the half-maximal inhibitory concentration (IC50) was less than 3 nM.
The result for `O=C(c1ccc2c(-c3ccn4c(=O)[nH]nc4c3)cccc2c1)N1CCCCC1` [compound 109] reads less than 3 nM; that for `CC1CN(C(=O)c2ccc3c(-c4ccc5c(=O)[nH]ncc5c4)cccc3c2)CCC1(F)F` (centres unmarked) [compound 119], less than 3 nM; that for `O=C(c1cnc2c(-c3ccn4c(=O)ccnc4c3)cccc2c1)N1CCC(F)(F)CC1` [compound 160], less than 3 nM.
Consider `O=C(c1ccc2c(-c3cnc4c(=O)[nH]ncc4c3)c(F)ccc2c1)N1CCC(F)(F)CC1` [compound 102], for which the IC50 lay in the range of 3 to 10 nM.
For the compound `CN1Cc2cc(-c3cccc4cc(C(=O)N5CCC(F)(F)CC5)ccc34)cnc2C1=O` [compound 78], the IC50 was less than 3 nM.
For the compound `CCN1Cc2cc(-c3cccc4cc(C(=O)N5CCC(F)(F)CC5)ccc34)ccc2C1=O` [compound 66], the half-maximal inhibitory concentration (IC50) was less than 3 nM.
On to `Cn1nc2n(c1=O)CCN(c1cccc3cc(C(=O)N4CCCCC4)ccc13)C2` [compound 74], for which the half-inhibitory concentration (IC50) was less than 3 nM.
Regarding `O=C(c1ccc2c(N3CCc4c(cc[nH]c4=O)C3)cccc2c1)N1CCC(F)(F)CC1` [compound 5], the IC50 is less than 3 nM.
For `O=C(c1cnc2c(-c3ccc4c(=O)[nH]oc4c3)cccc2c1)N1CCC(F)(F)CC1` [compound 141], the IC50 is less than 3 nM.
In the case of `NCCn1ncc2cc(-c3cccc4cc(C(=O)N5CCC(F)(F)CC5)ccc34)ccc2c1=O` [compound 162] it was less than 3 nM.
With `O=C(c1ccc2c(N3CCc4ncccc4C3)cccc2c1)N1CCCC2(CC2)C1` [compound 105], the IC50 is less than 3 nM.
In the case of `O=C(c1ccc2c(-c3cnc4c(=O)[nH]ncc4c3)cccc2c1)N1CCC(F)(F)CC1` [compound 57], the IC50 is less than 3 nM.
On to `Cn1nc2n(c1=O)CCN(c1nccc3cc(C(=O)N4CCC(F)(F)CC4)cc(F)c13)C2` [compound 106], for which the IC50 was 3 to 10 nM.
`O=C(c1ccc2c(-c3ccc4c(ccc[n+]4[O-])c3)cccc2c1)N1CCC(F)(F)CC1` [compound 71]: the IC50 is less than 3 nM.
The result for `C[C@H]1CCCN(C(=O)c2ccc3c(-c4cc5cc[nH]c(=O)c5cn4)cccc3c2)C1` [compound 47] reads less than 3 nM.
As for `Cn1nc2n(c1=O)CCN(c1cccc3cc(C(=O)N4CCC[C@H](C(F)(F)F)C4)ccc13)C2` [compound 3], the IC50 is less than 3 nM.
`CN1CC2CN(c3cccc4cc(C(=O)N5CCCCC5)ccc34)CCN2C1=O` (centres unmarked) [compound 96]: the IC50 was 3 to 10 nM.
With `Cn1ccc2cc(-c3cccc4cc(C(=O)N5CCC(F)(F)CC5)cnc34)ncc2c1=O` [compound 144], the IC50 was no less than 10 nM.
Regarding `Cn1nc2n(c1=O)CCN(c1cccc3cc(C(=O)N4CCCC5CC54)ccc13)C2` (centres unmarked) [compound 94], the IC50 was less than 3 nM.
With `O=C(c1ccc2c(-c3ccc4c(=O)[nH]ncc4c3)cccc2c1)N1C[C@H]2CCC[C@H]2C1` [compound 122], the half-maximal inhibitory concentration (IC50) was less than 3 nM.
With `CN1Cc2cc(-c3coc4cc(C(=O)N5CCCCC5)ccc34)ccc2C1=O` [compound 9], the IC50 was less than 3 nM.
The result for `O=C1NCc2nc(-c3cccc4cc(C(=O)N5CCC(F)(F)CC5)ccc34)ccc21` [compound 101] reads less than 3 nM.
In the case of `O=C(c1ccc2c(-c3ccc4c(c3)CN(CC3CC(F)(F)C3)C4=O)cccc2c1)N1CCC(F)(F)CC1` [compound 40] it was 3 to 10 nM.
On to `CN1Cc2cc(-c3c(F)ccc4cc(C(=O)N5CCC(F)(F)CC5)ccc34)ccc2C1=O` [compound 59], for which the IC50 was less than 3 nM.
As for `Cn1nc2n(c1=O)CCN(c1ncc(F)c3cc(C(=O)N4CCC(F)(F)CC4)ccc13)C2` [compound 20], the IC50 was 3 to 10 nM.
Turning to `O=C(c1ccc2c(-c3cnc4c(=O)[nH]cnc4c3)cccc2c1)N1CCC(F)(F)CC1` [compound 128], the IC50 is less than 3 nM.
`CN(C)C(=O)c1ccc2c(-c3ccn4c(=O)n(C)nc4c3)cccc2c1` [compound 166]: the 50% inhibitory concentration (IC50) was 3 to 10 nM.
The result for `NC(=O)c1ccc(-c2cccc3cc(C(=O)N4CCC(F)(F)CC4)ccc23)cc1F` [compound 41] reads less than 3 nM; that for `O=C1NCc2cc(-c3cccc4cc(C(=O)N5CCC(F)(F)CC5)ccc34)ccc21` [compound 24], less than 3 nM; that for `Cn1oc2cc(-c3cccc4cc(C(=O)N5CCC(F)(F)CC5)cnc34)ccc2c1=O` [compound 148], 3 to 10 nM.
The result for `CN1Cc2cc(-c3cccc4cc(C(=O)N5CC=CCC5)ccc34)cnc2C1=O` [compound 152] reads less than 3 nM; that for `O=C(c1ccc2c(N3CCc4ncccc4C3)cccc2c1)N1CCC[C@H](C(F)(F)F)C1` [compound 4], less than 3 nM.
Turning to `CN1Cc2cc(-c3cccc4cc(C(=O)N5CCC(F)(F)CC5)ccc34)ncc2C1=O` [compound 88], the IC50 is less than 3 nM.
As for `C[C@H]1CCCN(C(=O)c2ccc3c(N4CCn5c(nn(C)c5=O)C4)cccc3c2)C1` [compound 103], the half-inhibitory concentration (IC50) was less than 3 nM.
On to `O=C(c1ccc2c(N3CCc4ncccc4C3)cccc2c1)N1CCCCC1` [compound 50], for which the IC50 is less than 3 nM.
On to `C[C@H]1CCCN(C(=O)c2ccc3c(-c4ccc5c(=O)[nH]ncc5c4)cccc3c2)C1` [compound 81], for which the IC50 was less than 3 nM.
On to `CN1Cc2cc(-c3cccc4cc(C(=O)N5CCCCC5)cnc34)ccc2C1=O` [compound 29], for which the IC50 is less than 3 nM.
In the case of `Cc1ccc2c(n1)CCN(c1cccc3cc(C(=O)N4CCCCC4)ccc13)C2` [compound 77] it was less than 3 nM.
Turning to `CN1Cc2cc(-c3nccc4cc(C(=O)N5CCC(F)(F)CC5)ccc34)ccc2C1=O` [compound 156], the IC50 is 3 to 10 nM.
For `Cn1ccc2c(c1=O)CCN(c1cccc3cc(C(=O)N4CCCCC4)ccc13)C2` [compound 107], the IC50 is less than 3 nM.
